What was measured:
[1] = tested on: Nicotiana tabacum var. Samsun; experiment: Conditional female sterility of transgenic tobacco expressing mutant D-amino acid oxidase in female floral tissue; type: in vivo; conditions: for seed production after treatment / pollen production after treatment: transgenic tobacco; for seed production after treatment: female floral promoter-DAMOX, foliar spray, root drench or bud application; for pollen production after treatment: same treatment conditions
Procedure: Tobacco leaf discs are transformed with the recombinant binary vectors using methods similar to those described in Horsch et al (1985) Science, 227, 1229-1231. Many variations of the method may be used. The binary vector can be transformed into, for example, Agrobacterium tumefaciens strain LBA 4404 using the freeze thaw method of transformation. Tobacco transformation and whole plant regeneration is performed using Nicotiana tabacum var. Samsun according to protocols described by Draper et al (Plant Genetic Transformation, Blackwell Sci. Pub. 1989). Transformation events are selected on MS-media containing kanamycin or other suitable antibiotic. The presence of integrated transgenes is confirmed by PCR. Plants are regenerated and allowed to reach maturity and selfed on to produce seed. Northern and/or Western analysis is used to confirm tissue-specific expression of the D-amino acid oxidase genes. The selected plants are self-fertile but have the condition of conditional female sterility. Seeds of the T1 generation are planted out. Once plantlets have grown to a sufficient size they are tested by PCR for the presence of transgene. PCR positive plants are transferred to the greenhouse. These plants are fully fertile in the absence of exogenously applied proherbicide. A subset of these (putatively) conditionally sterile plants are treated with D-phosphinothricin or D-aspartate or D-glutamate in various amounts and at varying growth stages. Such treatments are carried out on the T1 plants confirmed as PCR positive for the D-amino acid oxidase gene, or, equally, such treatments are carried out directly on plants of the To generation (which are vegetatively cloned so that untreated clones of each event may be set aside for seed production). […] For example these amino acids are pure D enantiomers or, alternatively, are DL racemates. For example, they are applied as a foliar spray, prior to or during the early stages of flower formation, at rates usually between 0.25 and 20 kg/ha. Amino acids which may crystallise out of solution on the leaves following foliar application may be redissolved and remobilised for leaf uptake by further applications of water as a spray mist. Amino acids are, for example, also applied as a root drench and optionally, further applied as ˜50 ul of a 10-200 mM solution flooded directly into the buds of emerging florets. Pollen from the treated plants is collected and viability is tested. […] Controls include both transgenic and non-transgenic plants and are grown under identical conditions and under an identical regime of physical treatments except that treatment solutions are either water or an equivalent concentration of pure L-amino acid.
In one variant of the method, the amino acid applied is racemic DL phosphinothricin. In this case, the DNA construct used for transformation comprises, in addition to the DNA sequence encoding a D-amino acid oxidase under operable expression control of a tissue specific female floral promoter region such as ‘stig 1’, also a DNA sequence (EMBL: A02774) a […] under operable control of a promoter region such as the region 5′ of the translational start of the plastocyanin gene of the Pisum sativum plastocyanin gene (EMBL accession number X16082). For example, the construct is the same as depicted in FIG. 1.
The plastocyanin promoter region provides for preferential expression in the green tissues of the plant. […] Furthermore, in the absence of the heterologous D-amino acid oxidase being co-expressed in the floral tissues, the plastocyanin/PAT gene combination provides essentially complete reproductive tolerance with no significant loss of yield despite the PAT expression level being low or non-existent in many of the critical floral tissues when expressed under control of this promoter region. […]

Tobacco plants = experiment: Conditional male sterility of transgenic tobacco expressing mutant D-amino acid oxidase in male floral tissue; type: in vivo; conditions: rates between 250 g/ha and 5 kg/ha; TAP1 or TA29-DAMOX plus plastocyanin-PAT tobacco
Procedure: Tobacco plant material is transformed, via Agrobacterium, with vector and transgenic plants are regenerated in a similar manner to that described in the previous example. The plants produced are self-fertile but are conditionally male sterile. Seeds of the T1 generation are planted out into soil. Once plantlets have grown to a sufficient size they are tested by PCR for the presence of transgene. PCR positive plants are transferred to the greenhouse. These plants are fully fertile in the absence of exogenously applied proherbicide. A subset of these putatively conditionally sterile T1 plants, or, alternatively plantlets of T0 ‘events’ (direct regenerants from transformation) are treated with D-phosphinothricin or D-aspartate or D-glutamate in various amounts and at varying growth stages. Where To plants are treated they are vegetatively cloned so that untreated siblings of the events are set aside for seed production. […] For example these amino acids are pure D enantiomers or, alternatively, are DL racemates. For example, they are applied as a foliar spray, prior to or during the early stages of flower formation, at rates usually between 0.25 and 20 kg/ha. Amino acids which may crystallise out of solution on the leaves following foliar application may be redissolved and remobilised for leaf uptake by further applications of water as a spray mist. […]

wheat = experiment: Reproductive tolerance of wheat containing PAT gene under barley plastocyanin promoter; type: in vivo; conditions: wheat with PAT under barley plastocyanin promoter; rates of at least 2 kg/ha
From the text: The current invention provides a method of overcoming the problem of enabling the use of a cheap commercial herbicide, DL phosphinothricin, as both weed control and hybridising agent in the production of hybrid cereals and which method, furthermore, provides resultant hybrid cereals or rice in which DL phosphinothricin (or L-phosphinothricin) can be safely used for weed control without substantial loss of yield. As a yet further benefit, selfed seed from the F1 generation which may later arise as volunteers in subsequent crops will be easier to manage since they, themselves, will generally be sterile if sprayed with controlling amounts of DL phosphinothricin. The same holds for the progeny of pollen outcrossing from the F1 plants to weeds (e.g red rice) or other cereals. The current invention provides genes and enzymes that convert a non-phytotoxic component, D-phosphinothricin, of a commercial herbicide formulation DL phosphinothricin, into the active L form. The PAT gene which converts L-phosphinothricin to N-acetyl L-phosphinothricin is known already and is used commercially to provide tolerance to DL phosphinothricin in crops. […]

D-amino acid oxidase = experiment: Control experiments: oxidation of pure L and pure D form of phosphinothricin by D-amino acid oxidase; type: biochemical, Rhodotorula gracilis; conditions: oxygen electrode
Procedure: Approximately 7 g wet weight of cells is washed in water. The cells are resuspended in an equal volume of 50 mM/Mops/KOH buffer at pH 7.0 containing 2 mM EDTA, 2 mM DTT and 0.01 mM FAD. Cells are evenly suspended using a glass homogeniser and then disrupted using a one shot head in the Constant Systems (BudBrooke Rd, Warwick U.K.) Basic Z cell disrupter at 13500 psi. The crude extract is kept cold (−4° C.) centrifuged at 30,000 gav for 1 h and the pellet discarded. Some of the extract protein is run out on an SDS PAGE gel stained with Coomassie Blue and, through side by side comparison with similarly prepared extracts of cells containing only ‘empty’ pET vector it is estimated that 2-50% of the total soluble protein in the extract is D-amino acid oxidase. Some of the extract protein is exchanged into 50 mM Mops/KOH buffer at pH 7.0 containing 0.01 mM FAD. This is diluted with the same buffer in a standard oxygen electrode cell (calibrated at 25° C. between zero and a saturated concentration of oxygen). Optionally, the D-amino acid oxidase is further purified using ion-exchange, phenyl sepharose, fractional ammonium sulphate precipitation and gel filtration. […] Final amounts of protein in the cell vary up to 5 mg depending on the level of activity being measured. Rates of oxygen consumption (after substraction of any drift in the bases line) are measured.

[2] = rates between 250 g/ha and 5 kg/ha, stig1-DAMOX plus plastocyanin-PAT tobacco

Structure (SMILES)	seed production after treatment [1]	pollen production after treatment [1]	oxidation of pure enantiomer of phosphinothricin (D-amino acid oxidase)	also measured
N[C@H](CCC(=O)O)C(=O)O [D-glutamate]	relatively little or no seed	near normal levels of viable pollen		
CP(=O)(O)CCC(N)C(=O)O (stereo not drawn) [DL phosphinothricin]				reproductive tolerance to the herbicide ([1]; plastocyanin promoter/PAT gene, rates in excess of 2 kg/ha): substantially complete reproductive tolerance; female fertility of treated plants [1, 2]: rendered conditionally female sterile; visible damage of treated plants [1, 2]: not visibly damaged; male fertility of treated plants (Tobacco plants): rendered conditionally male sterile; visible damage of treated plants (Tobacco plants): not visibly damaged; reproductive tolerance to application (wheat): substantially reproductively tolerant
CP(=O)(O)CC[C@H](N)C(=O)O [pure L-form, L-phosphinothricin]			not oxidised at detectable levels	
CP(=O)(O)CC[C@@H](N)C(=O)O [D-phosphinothricin]	relatively little or no seed	near normal levels of viable pollen	up to twice the rate that the DL racemate is	
N[C@H](CC(=O)O)C(=O)O [D-aspartate]	relatively little or no seed	near normal levels of viable pollen		

Source: US20100275328A1, “METHOD OF SELECTIVELY PRODUCING MALE OR FEMALE STERILE PLANTS” (Syngenta Limited, priority 2003, published 2010)
